Values joined by “and” are separate entries in the source; they are usually repeats but may differ in a detail not shown here. Equal entries are not always repeated.
Key:
AAA formation = conditions: both low and high dose of Nifedipine alone; earlier study; cited from earlier work
[1] = system: Ang II infused hph-1 mice; conditions: oral FA administration; cited from earlier work
[2] = system: Ang II-infused apoE null mice; conditions: oral FA administration, previously observed; cited from earlier work
[3] = system: total superoxide production in aortas; test: Electron spin resonance determination of total aortic superoxide production; type: in vivo, mice; conditions: FA 15 mg/kg/day oral; ESR
Excerpt: Therefore, changes in aortic total superoxide production and eNOS uncoupling activity from all treatment groups is examined herein. Freshly prepared aortic lysates were subjected to electron spin resonance (ESR) determination of superoxide production with and without L-NAME, an inhibitor of NOS. If eNOS is functional and coupled, its inhibition by L-NAME will increase the measured superoxide, as eNOS is producing NO to scavenge superoxide. However, if eNOS is dysfunctional, uncoupled and producing superoxide, its inhibition with L-NAME will lead to a decrease in measured superoxide.
Aortic superoxide production was determined by electron spin resonance (ESR). In brief, freshly isolated aortas were homogenized in lysis buffer containing 1:100 protease inhibitor cocktail (MilliporeSigma, P8340), centrifuged at 12,000 rpm for 15 min, and protein supernatant collected. After determination of protein concentration using a protein assay kit (Bio-Rad), five μg of the protein was loaded into ice-cold and nitrogen bubbled modified Krebs/HEPES buffer (KHB, in mmol/L: NaCl 99; KCl 4.7; MgSO41.2; KH2PO4 1.0; CaCl2 1.9; NaHCO3 25; glucose 11.1, NaHEPES 20) containing diethyldithiocarbamic acid (5 mmol/L), deferoxamine (25 mmol/L), and the superoxide specific spin trap methoxycarbonyl-2,2,5,5-tetramethylpyrrolidine (CMH, 500 μmol/L, Axxora, San Diego, CA, USA). […]

[4] = system: Fbnic1^C1039G/+ Marfan Syndrome (MFS) mice; conditions: FA diet; cited from earlier work
[5] = system: Ang II infused apoE null mice; test: Ultrasound detection of abdominal aortic size (enlargement of abdominal aortas); type: in vivo; conditions: FA 15 mg/kg/day oral; weekly ultrasound over 4 weeks; vs. apoE+Ang II
Experimental: The back area between the shoulder blades was cleaned of hair and disinfected. Then a small incision was made at the cleaned site; the osmotic minipump (Alzet, model 2004) containing Ang II (1000 ng/kg/min, Sigma-Millipore, St. Louis, MO, USA) was subcutaneously implanted into the mice. The surgical wounds were closed with surgical staples, and then animals were allowed to recover in a heated cage. […] The enlargement of abdominal aortas in various experimental groups was monitored using ultrasound. Animals were anesthetized with isoflurane and placed on a temperature-controlled table. Isoflurane levels were adjusted throughout the experiment to maintain heart rate between 400 and 500 bpm while keeping the animal sufficiently anesthetized. Hair was removed from the abdomen using a hair removal cream, and preheated ultrasound transmission gel was applied onto the abdomen area. An ultrasound probe was placed on the gel to visualize aorta transversely (Vevo 2100, MS400, 30 MHz. FUJIFILM VisualSonics, Inc., Toronto, Ontario, Canada). The aorta was identified using Doppler measurement for the presence of pulsatile flow.

aortic H4B = test: HPLC determination of aortic H4B bioavailability; type: in vivo, mice; conditions: FA 15 mg/kg/day oral
Experimental: After centrifugation, 10 μl of the supernatant was injected into a HPLC system equipped with a fluorescent detector (Schimadzu America Inc, Carlsbad, CA, USA). Excitation and emission wavelengths of 350 nm and 450 nm were used to measure H4B levels.

[6] = system: Ang II infused apoE null mice; test: H&E staining of aortic sections, vascular remodeling; type: in vivo; conditions: FA 15 mg/kg/day oral
Excerpt: To examine the extent of the vascular remodeling that occurred during AAA in the presence of various treatments, freshly isolated aortas were embedded in paraffin, sectioned and stained with hematoxylin-eosin (H&E).
At the end of the study period of 4 weeks, animals were euthanized with CO2. The aortas were rapidly removed from the body, rinsed with ice cold Krebs/HEPES buffer, and cleaned of connective tissue and fat. […] For histological analyses, small sections (5 mm) of the abdominal aortas of the suprarenal region were removed and fixed in 4% paraformaldehyde overnight, followed by incubation for 24 hours in 10% sucrose, and then embedded in paraffin. In the case of AAA, a center section of the AAA was used for these analyses. Sections were sliced at 5μm at UCLA Pathology Core, and subjected to hematoxylin-eosin (H&E) staining following standard protocol.

[7] = system: Ang II infused apoE null mice; test: Verhoeff-Van Gieson (VVG) staining, medial elastin degradation; type: in vivo; conditions: FA 15 mg/kg/day oral
Experimental: To assess medial elastin degradation, VVG staining was performed using aortic sections from all experimental groups.
Paraffin embedded aortic sections were deparaffinized by sequential washes in xylene (2x), descending ethanol from 100%, 90%, 75% to 50%, and distilled water. Sections were stained in Verhoeff s solution for 70 min, followed by differentiation in 2% ferric chloride for 90 seconds. Sections were incubated with 5% sodium thiosulfate for 60 seconds, followed by counterstaining with Van Gieson's solution. Sections were then subjected to dehydration with 95% and 100% alcohol, and finally washed in xylene. After drying, sections were mounted with Permount mounting media (SP15-100, Thermo-Fisher Scientific, Pittsburgh, PA, USA), and images captured by a Nikon TE2000-U fluorescent microscope.

[8] = system: Ang II infused apoE null mice; test: Incidence of AAA in Ang II infused apoE null mice (ultrasound and post-mortem inspection); type: in vivo
Excerpt: The use of animals and experimental procedures were approved by the Institutional Animal Care and Usage Committee (IACUC) at the University of California Los Angeles (UCLA). Breeders of apoE null mice were purchased from Jackson Labs (Bar Harbor, ME, Strain B6.129P2-ApoEtmlUnc/J), and bred in house. Animals were kept in ventilated cages, with free access to water and standard chow under the standard care of Division of Laboratory Animal Medicine (DLAM) staff. Male apoE null mice of 6-8 months old were used for experimentation.
The animals receiving Ang II infusion were anesthetized in an isoflurane chamber with 5% isoflurane, and then moved to a nose cone with sustained supply of 1.5-2% isoflurane to maintain the anesthetic state. The back area between the shoulder blades was cleaned of hair and disinfected. Then a small incision was made at the cleaned site; the osmotic minipump (Alzet, model 2004) containing Ang II (1000 ng/kg/min, Sigma-Millipore, St. Louis, MO, USA) was subcutaneously implanted into the mice. The surgical wounds were closed with surgical staples, and then animals were allowed to recover in a heated cage.
At the end of the study period of 4 weeks, animals were euthanized with CO2. The aortas were rapidly removed from the body, rinsed with ice cold Krebs/HEPES buffer, and cleaned of connective tissue and fat. The incidence of AAA was determined by ultrasound assessment of abdominal aortic expansion as described above, and by direct inspection of the abdominal aortas post-mortem.

COC(=O)C1=C(C)NC(C)=C(C(=O)OC)C1c1ccccc1[N+](=O)[O-] [Nifedipine]
AAA formation (AAA formation): able to attenuate AAA formation

Nc1nc2ncc(CNc3ccc(C(=O)N[C@@H](CCC(=O)O)C(=O)O)cc3)nc2c(=O)[nH]1 [FA, folic acid]
AAA formation [1]: markedly attenuated
aneurysm formation [2]: abrogated aneurysm formation
total superoxide production in aortas [3]: markedly abrogated
formation of TAA and AAA [4]: attenuated formation of TAA and AAA
enlargement of abdominal aortas [5]: significantly attenuated
Ang II induced H4B deficiency (aortic H4B): significantly abrogated
vascular remodeling featured by elastic degradation and adventitial hypertrophy [6]: markedly attenuated
elastin degradation featured by flattening and breakdown [7]: significantly attenuated
incidence of AAA ([8]; FA 15 mg/kg/day oral in chow, 4 weeks Ang II infusion, Ang II alone 85.71%): 18.75%
numbers of animals developed AAA and animals examined ([8]; FA 15 mg/kg/day, b210 developed out of examined, b50 examined/developed): 6 out of 32 and 32/6

Reference: patent US20240173324A1, “COMBINATORY THERAPY FOR PREVENTING, INHIBITING, TREATING, OR REDUCING ANEURYSMS” (The Regents of the University of California, priority 2021, published 2024)
